Assay results as given in the supplement of paper PMC8253809.

What was measured:
DIPGX9 [1] = diffuse intrinsic pontine glioma line; assay: area under dose-response curve of % growth inhibition (log2 RLU vs DMSO / staurosporine), 1e-11 to 1e-4 M (% x log10 M); higher = more growth inhibition
Method in brief: (§1)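 Patient-derived pHGG/DIPG cell lines and astrocytes were plated in 384-well plates coated with 1% Geltrex and treated in triplicate with a 10-point threefold dilution series whose mean top concentration was 35 μM, for 7 days (3 days for iAstro) at 37 °C and 5% CO2. CellTiter-Glo luminescence was log2-transformed and scaled on each plate to % activity between solvent and positive controls. Area under the curve came from the trapezoid rule applied to a fitted log-logistic curve, or to a smoothing spline where the sigmoid fit failed.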

SUDIPGIV [2] = diffuse intrinsic pontine glioma line; assay: as above
Method in brief: as §1

HGGX2 [3] = paediatric high-grade glioma line; assay: as above
Method in brief: as §1

DIPGX29 [4] = H3.3 K27M diffuse intrinsic pontine glioma line; assay: as above
Method in brief: as §1

HABS [5] = astrocyte control; assay: as above
Method in brief: as §1

DIPGX37 [6] = H3.3 K27M diffuse intrinsic pontine glioma line; assay: as above
Method in brief: as §1

HGGX6 [7] = H3.3 G34R paediatric high-grade glioma line; assay: as above
Method in brief: as §1

SUDIPGVI [8] = diffuse intrinsic pontine glioma line; assay: as above
Method in brief: as §1

SUDIPGXIX [9] = diffuse intrinsic pontine glioma line; assay: as above
Method in brief: as §1

HGGX39 [10] = paediatric high-grade glioma line; assay: as above
Method in brief: as §1

SUDIPGXXI [11] = diffuse intrinsic pontine glioma line; assay: as above
Method in brief: as §1

SUDIPGXVII [12] = diffuse intrinsic pontine glioma line; assay: as above
Method in brief: as §1

DIPGX7 [13] = H3.3 K27M diffuse intrinsic pontine glioma line; assay: as above
Method in brief: as §1

SUDIPGXIII [14] = diffuse intrinsic pontine glioma line; assay: as above
Method in brief: as §1

iAstro [15] = astrocyte control; assay: as above
Method in brief: as §1

DIPGX9 [16] = assay: EC50 (inflection of fitted growth-inhibition curve) (log10 M)
Method in brief: (§2)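 Treatment used a pin tool and a 10-point threefold dilution series, mean top concentration 35 μM, run in triplicate on patient-derived pHGG/DIPG cell lines and astrocyte controls in 1% Geltrex-coated 384-well plates. Plates were kept at 37 °C, 5% CO2 for 7 days (iAstro: 3 days). Log2-transformed CellTiter-Glo luminescence was scaled per plate to % activity between negative (solvent) and positive control wells and pooled before fitting. EC50 and maximal response (yFin) came from the three- or four-parameter log-logistic fit chosen by lowest AICc.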

SUDIPGIV [17] = assay: as above
Method in brief: as §2

HGGX2 [18] = assay: as above
Method in brief: as §2

HGGX42 = H3.3 G34R paediatric high-grade glioma line; assay: as above
Method in brief: as §2

DIPGX29 [19] = assay: as above
Method in brief: as §2

HABS [20] = assay: as above
Method in brief: as §2

DIPGX37 [21] = assay: as above
Method in brief: as §2

HGGX6 [22] = assay: as above
Method in brief: as §2

SUDIPGVI [23] = assay: as above
Method in brief: as §2

SUDIPGXIX [24] = assay: as above
Method in brief: as §2

HGGX39 [25] = assay: as above
Method in brief: as §2

SUDIPGXXI [26] = assay: as above
Method in brief: as §2

SUDIPGXVII [27] = assay: as above
Method in brief: as §2

DIPGX7 [28] = assay: as above
Method in brief: as §2

SUDIPGXIII [29] = assay: as above
Method in brief: as §2

iAstro [30] = assay: as above
Method in brief: as §2

SMILES	area under dose-response curve (DIPGX9 [1])	area under dose-response curve (SUDIPGIV [2])	area under dose-response curve (HGGX2 [3])	area under dose-response curve (DIPGX29 [4])	area under dose-response curve (HABS [5])	area under dose-response curve (DIPGX37 [6])	area under dose-response curve (HGGX6 [7])	area under dose-response curve (SUDIPGVI [8])	area under dose-response curve (SUDIPGXIX [9])	area under dose-response curve (HGGX39 [10])	area under dose-response curve (SUDIPGXXI [11])	area under dose-response curve (SUDIPGXVII [12])	area under dose-response curve (DIPGX7 [13])	area under dose-response curve (SUDIPGXIII [14])	area under dose-response curve (iAstro [15])	EC50 (log10 M) (DIPGX9 [16])	EC50 (log10 M) (SUDIPGIV [17])	EC50 (log10 M) (HGGX2 [18])	EC50 (log10 M) (HGGX42)	EC50 (log10 M) (DIPGX29 [19])	EC50 (log10 M) (HABS [20])	EC50 (log10 M) (DIPGX37 [21])	EC50 (log10 M) (HGGX6 [22])	EC50 (log10 M) (SUDIPGVI [23])	EC50 (log10 M) (SUDIPGXIX [24])	EC50 (log10 M) (HGGX39 [25])	EC50 (log10 M) (SUDIPGXXI [26])	EC50 (log10 M) (SUDIPGXVII [27])	EC50 (log10 M) (DIPGX7 [28])	EC50 (log10 M) (SUDIPGXIII [29])	EC50 (log10 M) (iAstro [30])
C[C@@]12OC(=O)[C@]1([C@@H](O)[C@@H]1C=CCCC1)NC(=O)[C@@H]2CCCl [MARIZOMIB]	302	407	337	100	149	254	135	331	229	241	422	108	251	75.8	375	-6.99	-7.41	-7.46	-6.62	-7.05	-6.2	-6.54	-6.1	-7.2	-6.19	-6.39	-7.88	-6.26	-6.48	-6.99	-8.18
Nc1ccccc1NC(=O)c1ccc(CNc2nccc(-c3cccnc3)n2)cc1 [MOCETINOSTAT]	232	175	165	144	135	146	129	184	147	133	319	155	147	117	70.7	-6.26	-5.43	-5.76	-5.52	-5.81	-5.43	-5.51	-5.51	-5.98	-5.46	-5.37	-6.53	-5.48	-5.42	-5.46	-5.85
O=C(Nc1ccc([N+](=O)[O-])cc1Cl)c1cc(Cl)ccc1O [NICOLSAMIDE]	150	146	119	123	116	142	85.2	109	142	115	232	141	153	167	49.6	-5.44	-5.58	-5.27	-5.17	-5.58	-5.14	-5.74	-5.18	-5.47	-5.31	-5.17	-6.1	-5.39	-5.77	-5.59	-5.43
CCNC(=O)c1noc(-c2cc(C(C)C)c(O)cc2O)c1-c1ccc(CN2CCOCC2)cc1 [NVP-AUY922]	294	183	180	204	285	285	99.4	118	274	275	318	218	94.5	213	118	-7.48	-7.28	-7.61	-7.81	-6.44	-7.28	-7.47	-7.36	-7.36	-7.59	-7.42	-6.65	-7.41	-5.82	-7.11	-6.08
CCCS(=O)(=O)c1nc(NC2CC2)cc(-c2ccc3c(ccn3C3CC(C)(C)NC(C)(C)C3)c2)n1 [NVS-1]	152	138	169	172	124	159	145	158	174	130	140	154	166	163	143	-5.62	-5.52	-5.95	-5.95	-6.09	-5.42	-5.99	-5.83	-5.79	-5.92	-5.57	-5.34	-5.75	-5.64	-5.49	-5.72
COC1=CC(c2cc3ccccc3[nH]2)=N/C1=C\c1[nH]c(C)cc1C [OBATOCLAX]	177	177	217	174	138	167	136	210	216	165	280	128	219	128	141	-5.05	-5	-5.97	-5.63	-5.01	-5.01	-5.01	-5.1	-5.71	-5.51	-5.02	-5.64	-5	-5.53	-4.99	-5.45
C[C@@H]1O[C@@H](O[C@H]2C[C@@H](O)[C@]3(CO)[C@H]4[C@H](O)C[C@]5(C)[C@@H](C6=CC(=O)OC6)CC[C@]5(O)[C@@H]4CC[C@]3(O)C2)[C@H](O)[C@H](O)[C@H]1O [OUABAIN]	168	284	173	175	133	126	173	123	202	218	251	186	279	107	135	-6.37	-6.75	-6.55	-6.47	-7.26	-5.89	-6.7	-6.64	-6.13	-6.41	-6.9	-6.79	-6.53	-6.78	-6.47	-6.91
Cc1[nH]c2ccccc2c1CCNCc1ccc(/C=C/C(=O)NO)cc1 [PANOBINOSTAT]	287	252	253	228	272	220	216	249	293	212	355	244	243	195	134	-7.16	-6.92	-6.89	-6.95	-6.97	-6.59	-6.87	-6.93	-6.87	-6.75	-6.81	-7.22	-6.69	-6.73	-6.04	-6.78
OC1(c2ccc(Cl)c(C(F)(F)F)c2)CCN(CCCC(c2ccc(F)cc2)c2ccc(F)cc2)CC1 [PENFLURIDOL]	147	152	175	135	78.4	126	104	126	149	113	201	126	163	110	136	-5.4	-5.56	-5.63	-5.63	-5.43	-4.88	-5.35	-5.23	-5.28	-5.53	-5.24	-5.9	-5.21	-5.6	-5.21	-5.63
Cc1ccc(C(=O)Nc2ccc(CN3CCN(C)CC3)c(C(F)(F)F)c2)cc1C#Cc1cnc2cccnn12 [PONATINIB]	252	102	163	134	194	141	155	119	132	148	345	125	155	132	128	-6.72	-4.81	-5.61	-5.22	-5.28	-5.89	-5.38	-5.11	-4.86	-5.29	-5.47	-7.54	-4.84	-5.61	-4.88	-5.12
O=C(Nc1ccccc1-c1cn2c(CN3CCNCC3)csc2n1)c1cnc2ccccc2n1 [SRT1720]	146	146	158	110	91.1	113	102	154	139	103	178	96.6	143	122	131	-5.43	-5.41	-5.41	-5.49	-5.16	-4.93	-5.19	-5.14	-5.36	-5.34	-5.08	-5.7	-4.97	-5.4	-4.96	-5.43
CCN(CC)CCNC(=O)c1c(C)[nH]c(/C=C2\C(=O)Nc3ccc(F)cc32)c1C [SUNITINIB]	129	99.2	141	97.9	122	103	95.1	124	135	100	176	128	123	144	113	-5.03	-4.83	-5.16	-5.25	-4.95	-4.96	-4.77	-4.88	-5.01	-5.05	-4.77	-5.41	-4.97	-4.99	-4.94	-5.05
